Measured values reported in article PMC8686256, “DZNep promotes mouse bone defect healing via enhancing both osteogenesis and osteoclastogenesis” (Stem Cell Research & Therapy, 2021).

Tested on: primary BMSC
Assay: Osteoblast differentiation and mineralization, ALP and Alizarin red staining
Assay type: cell-based, mouse
Method: Primary BMSC were obtained from the whole bone marrow of male 4-week-old C57BL/6 mice. In brief, cells were extracted from the tibiae and femurs bone marrow and suspended in α-MEM supple with 10% FBS, and 1% penicillin/streptomycin. Then, the cell cultures were kept in a humid environment at 37 °C with 5% CO2 until they reached 90% confluence. For further identifying the effect of DZNep on osteogenesis, bone marrow-derived mouse mesenchymal stem cells were firstly seeded into the 48-well plates for one day at a density of 5 × 10^4 cells/well. Then the medium was changed by low-glucose DMEM with 15% FBS, 5 mM β-glycerophosphate, 50 µg/mL ascorbic acid, 10-7 mM dexamethasone, and various concentrations of DZNep (0, 12.5, 25, 50, and 100 nM). The medium was changed twice a week. For EZH2 gene knockdown studies, the cells were transfected with virus constructed of different EZH2 short hairpin RNA (shRNA) and negative control shRNA by mixed with polybrene (final concentration of 10ug/ml) for 48 h. The transfection mixture was then replaced by complete α-MEM added with puromycin for 24 h, and BMSCs were then seeded into a 48-well plate at the density of 5 × 10^4 cells/well with complete α-MEM for 24 h. The culture medium was then replaced by low-glucose DMEM with 15% FBS, 5 mM β-glycerophosphate, 50 µg/mL ascorbic acid, 10-7 mM dexamethasone. The medium was changed twice a week. […]

## Nc1nccc2c1ncn2C1C=C(CO)C(O)C1O (centres unmarked) [DZNep, 3-Deazaneplanocin]
7 days, especially 50 nM
  osteoblast differentiation (ALP staining): promoted
28 days
  osteoblast mineralization (Alizarin red staining): enhanced in a dose-dependent manner
